Assays:
[1] = Aggregation of C14 by Beer-Lambert titration; assay type: physicochemical; details: aqueous solution; linear plot of Soret band at 424 nm
Method: To test the possible occurrence of aggregation processes for this porphyrin, the intensity of the Soret band was titrated as a function of the porphyrin concentration according to the Beer-Lambert law. In a first phase of our investigations, the data were calculated up to a porphyrin concentration of 0.16 mM (FIG. 1A), since the optical density of more concentrated porphyrin solutions became too large even using cuvettes of 0.1 cm optical path. […] This spectral feature is generally attributed to the presence of porphyrin oligomers (Reddi E, Ceccon M, Valduga G, Joni G, Bommer J C, et al. (2002) Photophysical properties and antibacterial activity of meso-substituted cationic porphyrins. Photochem Photobiol 75: 462-470). To test the possibility that the hydrophobicity imparted by the long alkyl chain of C14 may favour the occurrence of some aggregation as the concentration increases, the titration was extended to larger molarities calculating the absorbance values at 404 nm instead of 424 nm (FIG. 2B).

[2] = Adsorption and release of C14 on powdered food pellet (PFP); assay type: physicochemical; details: 70 mg PFP in 500 ml 5 μM C14, 28° C., dark
Method: C14 appeared to remain stably associated with food particles. Specifically, the C14 concentrations in the incubation buffers ranged from 0.01 μM (pH 7.0) to 0.024 μM (pH 9.5), corresponding to a release of just 2.14%-5.15% of the initial C14 amount.
A standard food pellet for laboratory rodents, namely 4RF18 GLP (Mucedola Srl, Italy), commonly used as mosquito larval food, was crushed using an electric blender and then sieved (mesh diameter 500 μm) to obtain powdered food pellet (PFP) with final particle diameter of 5-500 μm diameter. C14-PFP complexes were obtained by incubating PFP in C14 solutions. The loading of C14 on PFP and the dynamics of its release from the C14-PFP complexes in water were analysed by spectrophotometric quantification. Specifically, to evaluate the C14 binding rate on PFP, 70 mg of PFP were incubated in 500 ml of a 5 μM solution of C14, at 28° C. for 5 days, in the dark. The same C14 solution without PFP served as control. The amount of unbound porphyrin was then estimated by measuring the absorbance at 423 nm of the supernatant of aliquots of the solutions collected at various incubation times and centrifuged at 10,000 rpm for 10 minutes. […] The amount of porphyrin released in the media from the formulate complexes was measured as described above. […]

Aedes aegypti larvae [3] = experiment: C14 porphyrin toxicity in the dark; assay type: in vivo; details: for emerged adults (%) / emerged adults (count) / adult % survival after light exposure: 5 μM C14; for emerged adults (%) / emerged adults (count): pooled data; for adult % survival after light exposure: 12 h-long irradiation 1.0-4.0 mW/cm^2
Method: (§1) All the experiments were carried out in a climatic chamber at 28±2° C. with a regulated photoperiod of 12 hours. Transparent plastic trays, containing 500 ml C14 solutions or spring water were employed. Typically, 5±1 days old, 3rd-early 4th instar Aedes aegypti larvae were used. All the experiments were replicated three times.
At the end of the incubation period, dead and living larvae were counted in each tray. Larvae were then washed with tap water, and transferred to new trays containing spring water and PFP. Trays were kept in the dark until adults emerged. Adults were counted and exposed to light (intensity 1.0-4.0 mW/cm^2) for 12 hours, and their mortality was evaluated at the end of the irradiation period.

Aedes aegypti larvae [4] = experiment: C14 porphyrin toxicity in the light; assay type: in vivo; details: 5 μM C14
Method: […] After the irradiation period, larvae were kept in the dark and larval mortality was monitored for 6 days. Arithmetic means of percentages of dead larvae. Error bars represent standard deviations (n=3 replicates of 50 larvae each).
Irradiation of mosquito larvae were performed by employing full spectrum visible light (400-800 nm) at a fluence rate of 1.0 to 4.0 mW/cm^2 using low-pressure mercury discharge fluorescent tubes TL-D Standard Colours (TL-D 58W/33-640 1SL, PHILIPS, EC). The intensity of the incident radiation was measured by an ILT1400A radiometer/photometer, equipped with a SED623/HNK15 multi-junction thermopile detector (International Light Technologies Inc., MA, USA).
as §1
Fifty larvae were added to groups of trays containing 5 μM porphyrin C14 solution or spring water as a control. Trays were provided with PFP (wherein PFP means powdered food pellet (PFP) with final particle diameter of 5-500 μm diameter obtained by crushing a standard food pellet for laboratory rodents, namely 4RF18 GLP (Mucedola Srl, Italy) using an electric blender and then sieving at mesh diameter 500 μm) and incubated in the dark for 12 hours. […] After irradiation, the trays were returned in the dark, and larval mortality was assessed every 24 hours for the following 6 days. Larvae not moving or not showing a normally vigorous escaping response at probing were defined as dead or dying, respectively, and counted together. Pupae formed during the experiment were transferred to smaller trays containing spring water, within screened cages at normal colony photoperiod conditions, and monitored for mortality and adult emergence.

CCCCCCCCCCCCCC[n+]1ccc(-c2c3nc(c(-c4cc[n+](C)cc4)c4ccc([nH]4)c(-c4cc[n+](C)cc4)c4nc(c(-c5cc[n+](C)cc5)c5ccc2[nH]5)C=C4)C=C3)cc1.Cc1ccc(S(=O)(=O)[O-])cc1.Cc1ccc(S(=O)(=O)[O-])cc1.Cc1ccc(S(=O)(=O)[O-])cc1.Cc1ccc(S(=O)(=O)[O-])cc1 [C14, meso-tri(N-methyl-pyridyl), mono(N-tetradecyl-pyridyl)porphine]
concentration up to which a purely monomeric state is indicated [1]: up to 0.16 mM | C14 bound to the PFP particles ([2]; 24 hours): 82% | C14 bound to the PFP particles ([2]; 5 days): 92% | emerged adults (%) (Aedes aegypti larvae [3]; dark incubation 3 hours): (97.9) % | emerged adults (count) (Aedes aegypti larvae [3]; dark incubation 3 hours): 138/141 | emerged adults (%) (Aedes aegypti larvae [3]; dark incubation 8 hours): (100) % | emerged adults (count) (Aedes aegypti larvae [3]; dark incubation 8 hours): 128/128 | emerged adults (%) (Aedes aegypti larvae [3]; dark incubation 24 hours): (97.9) % | emerged adults (count) (Aedes aegypti larvae [3]; dark incubation 24 hours): 138/141 | adult % survival after light exposure (Aedes aegypti larvae [3]; larval dark incubation 3 hours): 100% | adult % survival after light exposure (Aedes aegypti larvae [3]; larval dark incubation 8 hours): 100% | adult % survival after light exposure (Aedes aegypti larvae [3]; larval dark incubation 24 hours): 100% | larval mortality in the dark (Aedes aegypti larvae [3]; 5 μM C14 solution, irrespectively of the duration of incubation): No mortality | larval mortality (Aedes aegypti larvae [4]; 6 hour-long light, count 24 hours later): 100% | larval mortality (Aedes aegypti larvae [4]; dark-incubated 8 hours, 6 hour-long light 1.0-4.0 mW/cm^2, within irradiation period): 97.99%±0.05% | larval mortality (Aedes aegypti larvae [4]; irradiated one hour, thereafter kept in the dark, day 6): 92.1%±7.9%

— US20130296370A1, “COMPOSITION COMPRISING A PHOTOACTIVATABLE LARVICIDE” (UNIVERSITA DEGLI STUDI DI PADOVA, priority 2010, published 2013)
